{"source": "patent US8012944B2", "about": "“Method for treating cancer using IAP antisense oligomer and chemotherapeutic agent” (Pharmascience Inc., priority 2003, dated 2011)", "key": {"XIAP mRNA": {"tested_on": "XIAP mRNA", "experiment": "XIAP mRNA knock-down in H460 cells (real-time RT-PCR / TaqMan)", "format": "cell-based, human", "settings": "2 × 2 MBO; NCI-H460 cells, 9 hours post-transfection; relative level (mock control 1.01)"}, "H460 cells [1]": {"tested_on": "H460 cells", "experiment": "Nuclear morphology (DAPI staining)", "format": "cell-based, human", "settings": "1.2 μM", "method": "Cells were treated with liposome-oligonucleotde complexes for 4.5 h, and incubated for another 48 h at 37° C. in the medium without transfection reagent or oligonucleotides. Cells were harvested and stained with 0.10 μg/ml DAP1 (4′, 6-diamidino-2-2-phenylindole) for 30 min at room temperature. Cells were placed on a glass slide, cytospun, and viewed with a Leica microscope and 40× objective lens under UV fluorescent illumination. Digital images were captured using Imagedatabase V. 4.01 Software (Leica, Germany)."}, "human XIAP protein": {"tested_on": "human XIAP protein", "experiment": "XIAP protein in H460 tumor xenografts (western blot)", "format": "in vivo, mouse xenograft", "method": "To correlate the tumor growth inhibitory effects of G4 AS oligonucleotides with XIAP protein expression, we examined the changes in XIAP expression at the end of the in vivo treatment with 15 mg/kg of G4 AS and SC oligonucleotides. At day 21 or 24 post-tumor inoculation when tumors reached 1 cm^3 in size (FIG. 17), tumors were harvested and lysates from tumor homogenates were used for western blot analysis. XIAP and β-actin antibodies against the human protein were used, allowing for determination of human XIAP levels obtained from tumor cells specimens without contamination from XIAP derived from mouse cells. […]\nThe cells or tumor tissue samples were lysed with ice-cold lysis buffer (50 mM Tris, 150 mM NaCl, 2.5 mM EDTA, 0.1% SDS, 0.5% sodium deoxycholate, 1% NP-40, 0.02% sodium azide) containing protease inhibitors (Complete-Mini protease inhibitor tablets; Boehringer Mannheim GmBH, Mannheim, Germany). […] Protein content in the lysed extracts was determined using a detergent-compatible Bio-Rad assay (Bio-Rad Labs, Hercules, Calif.). […] Proteins were detected by enhanced chemiluminescence (ECL; Amersham Pharmacia Biotech, Buckinghamshire, England) and visualized after exposure to Kodak autoradiography film. Scanning densitometry (Molecular Dynamics, Sunnyvale, Calif.) was performed to quantify band intensities by volume/area integration. […]"}, "[2]": {"tested_on": "MDA-MB-435/LCC6 human breast carcinoma xenografts", "experiment": "Systemic (i.p.) PS-oligonucleotides in LCC6 breast carcinoma xenografts", "format": "in vivo, female SCID-RAG2 mice", "settings": "12.5 mg/kg i.p.; day 35, two weeks after the last treatment", "method": "Initial systemic PS-oligonucleotide studies were designed without any chemotherapeutic agents. SCID-RAG2 mice were inoculated with H460 human lung carcinoma cells (s.c. shoulder injection of 10^6 cells) and treatments with G4 and F3 AS PS-oligonucleotides, as well as a scrambled control, were initiated three days after tumor inoculation. Nucleobase oligomer injections were administered i.p. at 12.5 mg/kg three times a week for three weeks. At the end of the treatment period, mean tumor sizes in the groups treated with either G4 or F3 AS oligonucleotides were ˜50% smaller than in the group treated with a scrambled control oligonucleotides (FIG. 15). The same treatment protocol was tested on female SCID-RAG2 mice inoculated orthotopically with MDA-MB-435/LCC6 human breast carcinoma cells. Two weeks after the last treatment (day 35) tumor volumes of mice treated with F3, C5 or G4 AS oligonucleotides were 70%, 60%, and 45%, respectively, smaller than vehicle controls (FIG. 16).\nEfficacy experiments were conducted in male RAG2 immunodeficient mice bearing NCI-H460 tumours or female RAG2 mice bearing LCC6 tumors. Treatments were commenced on day 3 after tumor inoculation. Saline (controls), G4 AS oligonucleotides (5 or 15 mg/kg), or G4 SC oligonucleotides (5 or 15 mg/kg) were administered i.p. daily for five doses a week over a three week regimen. Vinorelbine (VNB, 5 or 10 mg/kg) was administered i.v. via the tail vein, either alone or in combination with oligonucleotides, at day 3, 7, 11 and 17 after tumor inoculation. When oligonucleotides were administered in combination with VNB, the drug treatment was performed four hours after ODN treatment."}, "H460 cells [3]": {"tested_on": "H460 cells", "experiment": "H460 cell growth, viability or death (MTT assay)", "format": "cell-based, human", "settings": "1.2 μM", "method": "Growth inhibition of […] cells was determined by the colorimetric MTT cell viability/proliferation assay. In brief, cells were treated with liposome-oligonucleotide complexes for 4.5 h, then incubated for another 48 h at 37° C. in medium without transfection reagent or oligonucleotides in the presence or absence of anticancer drugs. MTT (25 μg/well) was added to each well, and the plates incubated for 3 h at 37° C. Following the incubation step, the colored formazan product was dissolved by the addition of 200 μl DMSO. Plates were read using the microtiter plate reader (Dynex Technologies Inc., Chantilly, Va.) at a wavelength of 570 nm. The percentage of surviving cells in wells treated with oligonucleotides was normalized to untreated controls. All assays were performed in triplicate."}}, "note": "“Also recorded” adds a separate entry of the source.", "data": [{"sequence": "GCTGAGTCTCCATATTGCC [G4 AS] (chemistry not given here)", "values": [{"measurement": "XIAP RNA", "setting": "XIAP mRNA", "result": 0.48}, {"measurement": "nuclear morphological changes characteristic of apoptosis", "setting": "H460 cells [1]", "result": "underwent morphological changes characteristic of apoptosis; also recorded: significant nuclear DNA condensation and fragmentation"}, {"measurement": "down-regulation of XIAP protein in tumors vs control tumors", "setting": "human XIAP protein; 15 mg/kg, day 21 or 24, P<0.005", "result": "approximately 85%"}, {"measurement": "down-regulation of XIAP protein in tumor xenografts", "setting": "human XIAP protein; systemic administration", "result": 85, "unit": "%"}, {"measurement": "tumor volumes smaller than vehicle controls", "setting": "[2]", "result": 45, "unit": "%"}, {"measurement": "cell death", "setting": "H460 cells [3]; H460 cells", "result": 60, "unit": "%"}, {"measurement": "reduction of H460 cell growth relative to untreated control", "setting": "H460 cells [3]; MTT, 48 hours after transfection", "result": 55, "unit": "%"}]}]}
